As usually defined, the AC50 is the midpoint of the concentration-response curve, whichever way the signal moves. Broadly, the EC50 is the concentration at which the effect is half-maximal.

Results on 19 compounds are retold here after patent publication US20260055083A1, “APOL1 INHIBITORS AND METHODS OF USE” (Maze Therapeutics, Inc., priority 2022, published 2026).

Assay [1] deals with T1, APOL1 G2 (Homo sapiens, UniProt O14791, DEL388-389).
T1 construct: expressed in transfected cells; host or cells: HEK293/T-REx APOL1 G2 clone #2, doxycycline-inducible
T1 sequence (O14791 with tags, fused parts or gaps DEL388-389): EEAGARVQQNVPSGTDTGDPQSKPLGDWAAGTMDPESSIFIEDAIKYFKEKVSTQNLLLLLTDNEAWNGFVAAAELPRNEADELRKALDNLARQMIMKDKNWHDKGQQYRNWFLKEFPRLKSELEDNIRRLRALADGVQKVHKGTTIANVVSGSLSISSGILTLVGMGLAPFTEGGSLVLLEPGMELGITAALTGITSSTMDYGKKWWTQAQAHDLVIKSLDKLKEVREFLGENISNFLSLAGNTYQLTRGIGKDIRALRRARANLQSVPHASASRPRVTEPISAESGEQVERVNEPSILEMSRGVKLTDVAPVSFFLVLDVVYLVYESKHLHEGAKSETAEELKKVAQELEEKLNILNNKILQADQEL
Briefly: APOL1 G2 FLIPR calcium influx assay (HEK T-REx/GCaMP6f/APOL1 G2 K6.3 cells). The conditions noted are these: HEK293 clone expressing GCaMP6f, doxycycline-induced APOL1 G2; prevention of calcium influx; geometric mean of at least 2 assay runs. The format is cell-based. The method, boiled down: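 HEK293 clone stably expressing GCaMP6f, APOL1 G2 induced with doxycycline for 6 h; compounds (duplicate 8-point dose response) preincubated 10 min at room temperature in Ca2+-free Tyrode's buffer, pH 7.4. Ca2+ added to 5 mM final, influx read on FLIPR; AC50 is geometric mean of ≥2 runs.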

Assay [2] has as its target T1, APOL1 G2. Briefly: APOL1 G2 HEK293 rescue of cell death caused by overexpression of APOL1 (CellTiter-Glo). The format is cell-based. To be noted: HEK293/T-REx APOL1 G2 clone #2, doxycycline induction, 17 hours, CellTiter-Glo luminescence; reversal of cell death; geometric mean of at least 2 assay runs. The method, boiled down: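 Doxycycline (6 ng/mL)-induced HEK293/T-REx APOL1 G2 clone seeded at 5,000 cells/well with compound in duplicate 8-point 3-fold series (0.5% DMSO), 17 h at 37 °C. CellTiter-Glo luminescence; EC50 from four-parameter logistic fit, geometric mean of ≥2 runs.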
For orientation: Cellular ATP, detected with luciferase, serves as a proxy for viable cell number.

With `CC(C(O)c1cc(Cl)cc(C#N)c1)N1C[C@@H](COc2ccc(S(C)(=O)=O)cc2)[C@H](C)C1` (single isomer, unassigned) [Compound 101, 3-chloro-5-((1S,2R or 1R,2S)-1-hydroxy-2-((3S,4S)-3-methyl-4-((4-(methylsulfonyl)phenoxy)methyl)pyrrolidin-1-yl)propyl)benzonitrile], the AC50 in assay [1] was 765 nM. Moreover, the EC50 in assay [2] is above 10000 nM.
As for `C[C@@H]1C[C@H](COc2ccc(S(=O)(=O)CCCS(C)(=O)=O)cc2)CN1C1CCc2ccc(Cl)cc2C1` (single isomer, unassigned) [Compound 54, (2R,4S)-1-[(2S or 2R)-7-chloro-1,2,3,4-tetrahydronaphthalen-2-yl]-4-{[4-(3-methanesulfonylpropanesulfonyl)phenoxy]methyl}-2-methylpyrrolidine], in assay [1], the half-maximal activity concentration (AC50) came out at 857 nM. In addition, the concentration for a half-maximal effect (EC50) in assay [2] was determined as 54.8 nM.
The corresponding values for `CS(=O)(=O)c1ccc(OCC2C[C@@H](CO)N(CCc3cccc(Cl)c3)C2)cc1` (single isomer, unassigned) [Compound 124, [(2S,4R or 4S)-1-[2-(3-chlorophenyl)ethyl]-4-[(4-methanesulfonylphenoxy)methyl]pyrrolidin-2-yl]methanol] are 4920 nM and 5310 nM.
The corresponding values for `C[C@@H]1C[C@H](COc2ccc(S(=O)(=O)CCCS(C)(=O)=O)cc2)CN1C1CCc2c(C#N)cc(Cl)cc2C1` (single isomer, unassigned) [Compound 44, (6R or 6S)-3-chloro-6-[(2R,4S)-4-{[4-(3-methanesulfonylpropanesulfonyl)phenoxy]methyl}-2-methylpyrrolidin-1-yl]-5,6,7,8-tetrahydronaphthalene-1-carbonitrile] are 1380 nM and 312 nM.
As to `C[C@@H]1C[C@H](COc2ccc(S(=O)(=O)CCCS(C)(=O)=O)cc2)CN1C1CCc2c(C#N)cc(Cl)cc2C1` (stereo partly drawn) [Compound 43, 3-chloro-6-[(2R,4S)-4-{[4-(3-methanesulfonylpropanesulfonyl)phenoxy]methyl}-2-methylpyrrolidin-1-yl]-5,6,7,8-tetrahydronaphthalene-1-carbonitrile], in assay [1], the concentration at half-maximal activity (AC50) is 1360 nM. Besides, the EC50 in assay [2] came out at 350 nM.
Consider `Cc1cc(OC[C@H]2C[C@@H](C)N(CC(O)c3cccc(C#N)c3)C2)cnc1S(C)(=O)=O` (single isomer, unassigned) [Compound 96, 3-[(1S or 1R)-1-hydroxy-2-[(2R,4S)-4-{[(6-methanesulfonyl-5-methylpyridin-3-yl)oxy]methyl}-2-methylpyrrolidin-1-yl]ethyl]benzonitrile], for which, in assay [1], the AC50 was 188 nM. The EC50 in assay [2] is 27.7 nM.
In the case of `C[C@@H]1C[C@H](COc2ccc(S(C)(=O)=O)nc2)CN1CCc1cccc(C#N)c1` [Compound 64, 3-{2-[(2R,4S)-4-{[(6-methanesulfonylpyridin-3-yl)oxy]methyl}-2-methylpyrrolidin-1-yl]ethyl}benzonitrile], the AC50 in assay [1] was determined as 287 nM. Moreover, in assay [2], the half-maximal effective concentration (EC50) was 50.9 nM.
As to `CC(=O)N(C)CCS(=O)(=O)c1ccc(OC[C@H]2C[C@@H](C)N(CCc3cccc(C#N)c3)C2)cc1` [Compound 67, N-[2-(4-{[(3S,5R)-1-[2-(3-cyanophenyl)ethyl]-5-methylpyrrolidin-3-yl]methoxy}benzenesulfonyl)ethyl]-N-methylacetamide], the AC50 in assay [1] was determined as 337 nM. For the same compound, the concentration for a half-maximal effect (EC50) in assay [2] was found to be 50.3 nM.
Regarding `C[C@@H]1CN(C2CCc3ccc(Cl)cc3C2)C[C@H]1COc1ccc(S(C)(=O)=O)cc1` (single isomer, unassigned) [Compound 16, (3S,4S)-1-[(2R or 2S)-7-chloro-1,2,3,4-tetrahydronaphthalen-2-yl]-3-[(4-methanesulfonylphenoxy)methyl]-4-methylpyrrolidine], in assay [1], the AC50 stood at 1080 nM. Besides, the concentration giving a half-maximal response (EC50) in assay [2] is 712 nM.
As for `Cc1cc(OC[C@@H]2CN(CCc3cccc(C#N)c3)C[C@H]2C)ccc1S(C)(=O)=O` [Compound 83, 3-{2-[(3S,4S)-3-[(4-methanesulfonyl-3-methylphenoxy)methyl]-4-methylpyrrolidin-1-yl]ethyl}benzonitrile], in assay [1], the half-maximal activity concentration (AC50) stood at 94.6 nM. In addition, the EC50 in assay [2] was determined as 94.3 nM.
On to `C[C@@H]1C[C@H](COc2ccc(S(=O)(=O)CCCS(C)(=O)=O)cc2)CN1C1CCc2ccc(C#N)cc2C1` (single isomer, unassigned) [Compound 34, (7R or 7S)-7-[(2R,4S)-4-{[4-(3-methanesulfonylpropanesulfonyl)phenoxy]methyl}-2-methylpyrrolidin-1-yl]-5,6,7,8-tetrahydronaphthalene-2-carbonitrile], for which, in assay [1], the AC50 worked out at 951 nM. The EC50 in assay [2] came to 86.9 nM.
As to `CS(=O)(=O)c1ccc(OC[C@@H]2CCCN(C3CCc4ccc(Cl)cc4C3)C2)cc1` (single isomer, unassigned) [Compound 132, (3R)-1-[(2S or 2R)-7-chloro-1,2,3,4-tetrahydronaphthalen-2-yl]-3-[(4-methanesulfonylphenoxy)methyl]piperidine], in assay [1], the half-maximal activity concentration (AC50) was 446 nM. The EC50 in assay [2] stood at 924 nM.
As for `C[C@@H]1C[C@H](COc2ccc(S(=O)(=O)CCO)cc2)CN1C1CCc2ccc(Cl)cc2C1` (single isomer, unassigned) [Compound 63, 2-(4-{[(3S,5R)-1-[(2S or 2R)-7-chloro-1,2,3,4-tetrahydronaphthalen-2-yl]-5-methylpyrrolidin-3-yl]methoxy}benzenesulfonyl)ethan-1-ol], in assay [1], the AC50 turned out to be 188 nM. Also, the EC50 in assay [2] worked out at 24.8 nM.
In the case of `C[C@@H]1C[C@H](COc2ccc(S(C)(=O)=O)nc2)CN1CC(O)c1cccc(C#N)c1` (single isomer, unassigned) [Compound 93, 3-[(1R or 1S)-1-hydroxy-2-[(2R,4S)-4-{[(6-methanesulfonylpyridin-3-yl)oxy]methyl}-2-methylpyrrolidin-1-yl]ethyl]benzonitrile], the concentration at half-maximal activity (AC50) in assay [1] is 1250 nM. The concentration giving a half-maximal response (EC50) in assay [2] is 1670 nM.
The corresponding values for `C[C@@H]1CN(C(CO)Cc2cccc(Cl)c2)C[C@H]1COc1ccc(S(C)(=O)=O)cc1` (stereo partly drawn) [Compound 115, 3-(3-chlorophenyl)-2-[(3S,4S)-3-[(4-methanesulfonylphenoxy)methyl]-4-methylpyrrolidin-1-yl]propan-1-ol] are 470 nM and 1830 nM.
The corresponding values for `C[C@@H]1CN(CCc2cccc(C#N)c2)C[C@H]1COc1ccc(S(C)(=O)=NCCS(C)(=O)=O)cc1` (single isomer, unassigned) [Compound 69] are 346 nM and 377 nM.
With `C[C@@H]1C[C@H](COc2ccc(S(=O)(=O)CCS(C)(=O)=O)cc2)CN1C1CCc2ccc(C#N)cc2C1` (single isomer, unassigned) [Compound 31], the AC50 in assay [1] is 773 nM. In addition, in assay [2], the EC50 was found to be 234 nM.
The corresponding values for `C[C@@H]1CN(CCc2cccc(C#N)c2)C[C@H]1COc1cnc(S(C)(=O)=O)cn1` [Compound 20, 3-{2-[(3S,4S)-3-{[(5-methanesulfonylpyrazin-2-yl)oxy]methyl}-4-methylpyrrolidin-1-yl]ethyl}benzonitrile] are 776 nM and 1120 nM.
Regarding `C[C@@H]1CN(CC(CO)c2cc(Cl)cc(C#N)c2)C[C@H]1COc1ccc(S(C)(=O)=O)cc1` (single isomer, unassigned) [Compound 127, 3-chloro-5-[(2R or 2S)-1-hydroxy-3-[(3S,4S)-3-[(4-methanesulfonylphenoxy)methyl]-4-methylpyrrolidin-1-yl]propan-2-yl]benzonitrile], the concentration at half-maximal activity (AC50) in assay [1] came out at 2220 nM. Moreover, the concentration giving a half-maximal response (EC50) in assay [2] is above 10000 nM.
